The subject of the assay is several species of micro-organisms (Candida spp, Pseudomonas spp, E. coli). Put plainly: Well diffusion bioassay, zones of inhibition. It counts as cell-based. The settings on record: NaCl tested on its own. On the procedure:
Escherichia coli (NCIMB 8545), Staphylococcus aureus (NCIMB 9518) and Pseudomonas aeruginosa (NCIMB 8626) are grown on nutrient agar or in nutrient broth for 24 hrs at 37° C.
Candida albicans (NCIMB 3179) and Saccharomyces cerevisiae are grown on sabaroud dextrose agar or in sabaroud dextrose broth for 24 hrs at 37° C. […]
Bacterial growth is monitored by measuring the culture optical density (OD) in a spectrophotometer (Anthos 2010) at a wavelength of 620 nm.
The formulations were assessed for antimicrobial activity against several species of micro-organisms (several of which produce catalase; Candida spp, Pseudomonas spp, E. coli) using the well diffusion bioassay, results were obtained by measuring the zones of inhibition (n=3).
Agar plates are inoculated by swabbing overnight culture onto the plate surface. Plates are allowed to stand at room temperature for 15 minutes before use. Wells 8.2 mm diameter are bored into the surface of the agar. A 180 μl sample is placed into each well. The samples diffuse into the agar around the well and are assayed for an ability to produce a zone of inhibition. Plates are incubated for 24, 48 or 72 hrs and zones of inhibition are measured using an Autodata automatic zone reader. The diameter of zones, including the diameter of the well (8.2 mm), is recorded. […]
A general note: Agar diffusion results depend on both activity and mobility in agar.

SMILES strings stand for the structures.

The text below walks through data of patent publication US20230022880A1, “Antimicrobial Composition” (INSTITUTE OF TECHNOLOGY SLIGO, priority 2019, published 2023).

On to `[Cl-].[Na+]` [NaCl, sodium chloride], for which the Antimicrobial activity result is “no discernible activity”.
